Patent US9573956B2, “Compounds as dual inhibitors of phosphodiesterases and histone deacetylases” (FUNDACIÓN PARA LA INVESTIGACIÓN MÉDICA APLICADA, priority 2013, dated 2017)

Key:
Assay type in all cases: biochemical
HDAC1 = HDAC1 (Homo sapiens, UniProt Q13547); test: HDAC enzyme activity assay (fluorogenic substrate), HDAC1; details: recombinant enzyme; read-out: HDAC1 inhibition (IC50)
PDE9A isoform b = biological target: T1, PDE9A isoform b (Homo sapiens, UniProt O76083); test: PDE enzyme activity assay (HTRF cGMP), PDE9A; details: recombinant enzyme; read-out: PDE9A inhibition (IC50)
T1 construct: they are full-length with N-terminal GST tag; GST (N); purchased BPS Biosciences 60090; host or cells: baculovirus infected Sf9 cells
T1 sequence (O76083 1-533 isoform O76083-2): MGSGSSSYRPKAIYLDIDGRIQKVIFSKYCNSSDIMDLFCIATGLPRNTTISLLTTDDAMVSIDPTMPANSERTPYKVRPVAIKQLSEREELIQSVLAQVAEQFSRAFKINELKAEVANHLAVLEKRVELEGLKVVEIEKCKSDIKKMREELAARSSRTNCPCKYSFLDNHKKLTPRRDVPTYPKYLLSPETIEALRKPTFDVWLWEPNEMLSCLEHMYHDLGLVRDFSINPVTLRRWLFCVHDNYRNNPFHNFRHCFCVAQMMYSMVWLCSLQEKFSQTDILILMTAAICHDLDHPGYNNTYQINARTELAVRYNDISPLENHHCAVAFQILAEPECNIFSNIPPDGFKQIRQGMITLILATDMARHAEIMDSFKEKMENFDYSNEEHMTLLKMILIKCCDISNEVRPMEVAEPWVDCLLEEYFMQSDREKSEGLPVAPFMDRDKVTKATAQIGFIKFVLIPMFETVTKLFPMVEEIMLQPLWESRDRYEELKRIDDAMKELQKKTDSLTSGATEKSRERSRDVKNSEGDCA

HDAC6 = biological target: T2, HDAC6 (Homo sapiens, UniProt Q9UBN7); test: HDAC enzyme activity assay (fluorogenic substrate), HDAC6; details: recombinant enzyme; read-out: HDAC6 inhibition (IC50)
T2 construct: BC069243; Cat. #50006) is full-length with N-terminal GST tag; GST (N); purchased BPS Biosciences 50006; host or cells: baculovirus infected Sf9 cells
T2 sequence (Q9UBN7 1-1215): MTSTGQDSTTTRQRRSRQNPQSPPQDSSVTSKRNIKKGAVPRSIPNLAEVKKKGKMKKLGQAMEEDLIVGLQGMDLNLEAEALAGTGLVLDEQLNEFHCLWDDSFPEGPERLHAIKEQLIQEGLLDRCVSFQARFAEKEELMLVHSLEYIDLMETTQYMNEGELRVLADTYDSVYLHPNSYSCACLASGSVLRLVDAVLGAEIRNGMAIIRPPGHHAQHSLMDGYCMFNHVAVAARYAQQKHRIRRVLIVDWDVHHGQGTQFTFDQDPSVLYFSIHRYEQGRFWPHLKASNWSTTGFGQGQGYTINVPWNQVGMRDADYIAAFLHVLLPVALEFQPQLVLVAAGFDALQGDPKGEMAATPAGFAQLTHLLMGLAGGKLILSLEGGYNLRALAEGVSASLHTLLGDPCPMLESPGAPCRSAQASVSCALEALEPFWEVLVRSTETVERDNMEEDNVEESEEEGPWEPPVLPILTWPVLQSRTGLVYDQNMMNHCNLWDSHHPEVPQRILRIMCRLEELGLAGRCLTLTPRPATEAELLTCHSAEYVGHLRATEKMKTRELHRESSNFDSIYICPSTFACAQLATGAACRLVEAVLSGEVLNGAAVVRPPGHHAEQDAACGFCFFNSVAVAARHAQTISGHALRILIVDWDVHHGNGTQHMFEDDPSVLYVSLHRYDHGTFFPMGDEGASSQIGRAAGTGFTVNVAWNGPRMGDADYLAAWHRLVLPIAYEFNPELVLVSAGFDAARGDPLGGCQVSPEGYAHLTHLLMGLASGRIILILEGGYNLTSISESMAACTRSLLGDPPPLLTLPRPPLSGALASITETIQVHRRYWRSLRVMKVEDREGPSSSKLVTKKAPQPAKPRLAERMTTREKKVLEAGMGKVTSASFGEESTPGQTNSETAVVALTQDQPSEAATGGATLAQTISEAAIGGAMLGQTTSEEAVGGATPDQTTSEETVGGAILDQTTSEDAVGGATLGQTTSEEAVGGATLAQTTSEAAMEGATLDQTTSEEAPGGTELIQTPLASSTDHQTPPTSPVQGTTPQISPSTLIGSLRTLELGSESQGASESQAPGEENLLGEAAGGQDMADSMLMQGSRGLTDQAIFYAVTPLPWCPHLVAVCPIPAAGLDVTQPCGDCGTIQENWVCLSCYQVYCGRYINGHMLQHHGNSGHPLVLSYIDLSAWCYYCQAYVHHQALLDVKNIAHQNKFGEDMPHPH

HDAC2 = biological target: T3, HDAC2 (Homo sapiens, UniProt Q92769); test: HDAC enzyme activity assay (fluorogenic substrate), HDAC2; details: recombinant enzyme; read-out: HDAC2 inhibition (IC50)
T3 construct: NM_001527; Cat. #50002) is full-length with C-terminal his tag; His (C); purchased BPS Biosciences 50002; host or cells: baculovirus infected Sf9 cells
T3 sequence (Q92769 whole entry): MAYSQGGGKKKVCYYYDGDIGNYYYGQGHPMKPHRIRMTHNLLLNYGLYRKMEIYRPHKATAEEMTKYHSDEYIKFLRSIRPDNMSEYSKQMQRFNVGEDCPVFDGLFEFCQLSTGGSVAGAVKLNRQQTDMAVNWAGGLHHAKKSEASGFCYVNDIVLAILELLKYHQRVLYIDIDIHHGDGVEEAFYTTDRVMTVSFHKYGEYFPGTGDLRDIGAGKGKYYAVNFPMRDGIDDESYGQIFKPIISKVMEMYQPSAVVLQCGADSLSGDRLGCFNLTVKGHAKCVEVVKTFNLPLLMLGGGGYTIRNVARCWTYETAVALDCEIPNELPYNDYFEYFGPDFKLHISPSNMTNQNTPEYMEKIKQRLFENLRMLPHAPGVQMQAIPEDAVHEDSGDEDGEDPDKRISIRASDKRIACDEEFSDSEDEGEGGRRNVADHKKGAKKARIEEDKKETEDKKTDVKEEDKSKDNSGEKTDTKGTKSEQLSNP

PDE5A = biological target: T4, PDE5A (Homo sapiens, UniProt O76074); test: PDE enzyme activity assay (HTRF cGMP), PDE5A; details: recombinant enzyme; read-out: PDE5A1 inhibition (IC50)
T4 construct: they are full-length with N-terminal GST tag; GST (N); purchased BPS Biosciences 60050; host or cells: baculovirus infected Sf9 cells

HDAC1, sequence (Q13547 whole entry, canonical isoform): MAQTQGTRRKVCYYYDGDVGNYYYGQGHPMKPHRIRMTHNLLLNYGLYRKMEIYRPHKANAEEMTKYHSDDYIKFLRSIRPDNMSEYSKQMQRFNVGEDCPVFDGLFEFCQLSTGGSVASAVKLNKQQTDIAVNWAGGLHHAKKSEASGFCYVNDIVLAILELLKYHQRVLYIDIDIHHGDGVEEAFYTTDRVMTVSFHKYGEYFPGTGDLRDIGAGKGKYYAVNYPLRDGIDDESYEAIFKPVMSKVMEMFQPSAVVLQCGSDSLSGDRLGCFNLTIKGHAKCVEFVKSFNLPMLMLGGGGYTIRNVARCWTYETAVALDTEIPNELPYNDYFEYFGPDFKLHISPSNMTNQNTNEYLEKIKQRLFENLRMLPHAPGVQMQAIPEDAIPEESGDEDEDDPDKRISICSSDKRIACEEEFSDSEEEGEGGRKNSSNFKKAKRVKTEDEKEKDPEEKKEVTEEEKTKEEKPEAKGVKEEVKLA

SMILES	IC50 (HDAC1) [nM]	IC50 (PDE9A isoform b) [nM]	IC50 (HDAC6) [nM]	IC50 (HDAC2) [nM]	IC50 (PDE5A) [nM]
C[C@@H]1CN(Cc2cnc(N3CCC(C(=O)NO)CC3)nc2)C[C@H]1c1nc2c(cnn2C2CCOCC2)c(=O)[nH]1 (racemic) [Example 3-08]	1000 to 10000	10 to 1000	–	–	–
C[C@@H]1CN(Cc2ncc(-c3ccc(C(=O)NO)cc3)cn2)C[C@H]1c1nc2c(cnn2C2CCOCC2)c(=O)[nH]1 (racemic) [Example 3-04]	10 to 1000	< 10	–	–	–
CC(c1nc2c(cnn2C2CCOCC2)c(=O)[nH]1)N1CC(Oc2ccc(/C=C/C(=O)NO)cc2)C1 (centres unmarked) [Example 3-06]	10 to 1000	< 10	–	–	–
CC(c1nc2c(cnn2C2CCOCC2)c(=O)[nH]1)N1CC(OC2CCN(c3ncc(C(=O)NO)cn3)CC2)C1 (centres unmarked) [Example 3-07]	10 to 1000	10 to 1000	–	–	–
CC1CN(CC2CC(C(=O)NO)C2)CC1c1nc2c(cnn2C2CCOCC2)c(=O)[nH]1 (racemic) [Example 3-12]	1000 to 10000	10 to 1000	1000 to 10000	> 10000	–
C[C@H]1CN(Cc2ccc(C(=O)NO)cc2)C[C@@H]1c1nc2c(cnn2C2CCOCC2)c(=O)[nH]1 (racemic) [Example 3-09, 4-[[(3R,4R)-3-methyl-4-(4-oxo-1-tetrahydropyran-4-yl-5H-pyrazolo[3,4-d]pyrimidin-6-yl)pyrrolidin-1-yl]methyl]benzenecarbohydroxamic acid]	–	10 to 1000	10 to 1000	–	–
CCCc1nn(C)c2c(=O)[nH]c(-c3cc(S(=O)(=O)Nc4ccc(/C=C/C(=O)NO)cc4)ccc3OCC)nc12 [Example 1-03]	10 to 1000	1000 to 10000	–	10 to 1000	< 10
CC(c1nc2c(cnn2C2CCOCC2)c(=O)[nH]1)N1CC(Oc2ccc(-c3ccc(C(=O)NO)cc3)cc2)C1 (centres unmarked) [Example 3-03, 4-[4-[1-[1-(4-Oxo-1-tetrahydropyran-4-yl-5H-pyrazolo[3,4-d]pyrimidin-6-yl)ethyl]azetidin-3-yl]oxyphenyl]benzene carbohydroxamic acid]	1000 to 10000	10 to 1000	–	–	> 10000
CCCc1nc(C)c2c(=O)[nH]c(-c3cc(S(=O)(=O)Nc4ccc(/C=C/C(=O)NO)cc4)ccc3OCC)nn12 [Example 2-03]	10 to 1000	1000 to 10000	–	–	< 10
C[C@@H]1CN(Cc2ccc(C(=O)NO)s2)C[C@H]1c1nc2c(cnn2C2CCOCC2)c(=O)[nH]1 (racemic) [Example 3-10]	–	10 to 1000	10 to 1000	–	–
COc1ccc(C(=O)Nc2c(Cl)cncc2Cl)cc1OC1CCCC1 [Piclamilast, reference compound]	–	> 10000	–	–	1000 to 10000
CC(c1nc2c(cnn2C2CCOCC2)c(=O)[nH]1)N1CC(Oc2ccc(N3CCC(C(=O)NO)CC3)cc2)C1 (centres unmarked) [Example 3-05]	> 10000	10 to 1000	–	–	–
C[C@@H]1CN(Cc2ccc(C(=O)NO)cc2)C[C@H]1c1nc2c(cnn2C2CCCC2)c(=O)[nH]1 (racemic) [Example 3-11]	–	10 to 1000	10 to 1000	–	–
O=C(NO)c1cnc(N2CCC(CN3CC(=O)N4[C@H](c5ccc6c(c5)OCO6)c5[nH]c6ccccc6c5C[C@@H]4C3=O)CC2)nc1 [Example 4-05]	10 to 1000	> 10000	10 to 1000	10 to 1000	10 to 1000
CCCc1nc(C)c2c(=O)[nH]c(-c3cc(S(=O)(=O)N4CCN(CCCC(=O)NO)CC4)ccc3OCC)nn12 [Example 2-02, 4-[4-[4-ethoxy-3-(5-methyl-4-oxo-7-propyl-3H-imidazo[5,1-f][1,2,4]triazin-2-yl)phenyl]sulfonylpiperazin-1-yl]butanehydroxamic acid]	10 to 1000	10 to 1000	–	–	< 10
CCCc1nc(C)c2c(=O)[nH]c(-c3cc(S(=O)(=O)N4CCN(c5ncc(C(=O)NO)cn5)CC4)ccc3OCC)nn12 [Example 2-05]	< 10	> 10000	–	–	< 10
CC(c1nc2c(cnn2C2CCOCC2)c(=O)[nH]1)N1CC(Cc2ccc(C(=O)NO)cc2)C1 (centres unmarked) [Example 3-15]	1000 to 10000	10 to 1000	10 to 1000	1000 to 10000	–
CC1CN(Cc2ccc(C(=O)NO)s2)CC1c1nc2c(cnn2C2CCCC2)c(=O)[nH]1 (racemic) [Example 3-17]	10 to 1000	< 10	10 to 1000	1000 to 10000	–
CCCc1nn(C)c2c(=O)[nH]c(-c3cc(N4CCC(C(=O)NO)CC4)ccc3OCC)nc12 [Example 1-35, 1-[4-ethoxy-3-(1-methyl-7-oxo-3-propyl-6H-pyrazolo[4,3-d]pyrimidin-5-yl)phenyl]piperidine-4-carbohydroxamic acid]	1000 to 10000	–	1000 to 10000	> 10000	10 to 1000
CC(c1nc2c(cnn2C2CCOCC2)c(=O)[nH]1)N1CC(Cc2ccc(C(=O)NO)s2)C1 (centres unmarked) [Example 3-16]	1000 to 10000	10 to 1000	1000 to 10000	1000 to 10000	–
CCCc1nn(C)c2c(=O)[nH]c(-c3cc(C(=O)NO)ccc3OCC)nc12 [Example 1-27, 4-ethoxy-3-(1-methyl-7-oxo-3-propyl-6H-pyrazolo[4,3-d]pyrimidin-5-yl)benzenecarbohydroxamic acid]	1000 to 10000	–	> 10000	> 10000	< 10
CCCc1nn(C)c2c(=O)[nH]c(-c3cc(OC4CCC(C(=O)NO)CC4)ccc3OCC)nc12 (centres unmarked) [Example 1-53]	1000 to 10000	–	1000 to 10000	1000 to 10000	10 to 1000
CCCc1nn(C)c2c(=O)[nH]c(-c3cc(N4CCC(CCC(=O)NO)CC4)ccc3OCC)nc12 [Example 1-54]	10 to 1000	–	1000 to 10000	1000 to 10000	10 to 1000
CCCc1nn(C)c2c(=O)[nH]c(-c3cc(Oc4ccc(C(=O)NO)cc4)ccc3OCC)nc12 [Example 1-37, 4-[4-ethoxy-3-(1-methyl-7-oxo-3-propyl-6H-pyrazolo[4,3-d]pyrimidin-5-yl)phenoxy]benzenecarbohydroxamic acid]	10 to 1000	–	10 to 1000	1000 to 10000	10 to 1000
CC(c1nc2c(cnn2C2CCOCC2)c(=O)[nH]1)N1CC(Oc2ccc(C(=O)NO)cc2)C1 (centres unmarked) [Example 3-13]	10 to 1000	10 to 1000	10 to 1000	1000 to 10000	–
CC1CN(CC2CCN(c3ncc(C(=O)NO)cn3)CC2)CC1c1nc2c(cnn2C2CCOCC2)c(=O)[nH]1 (racemic) [Example 3-02, 2-(4-((3-(4,5-Dihydro-1-(tetrahydro-2H-pyran-4-yl)-4-oxo-1H-pyrazolo[3,4-d]pyrimidin-6-yl)-4-methylpyrrolidin-1-yl)methyl)piperidin-1-yl)-N-hydroxypyrimidine-5-carboxamide]	10 to 1000	10 to 1000	–	–	1000 to 10000
CCCc1nn(C)c2c(=O)[nH]c(-c3cc(C4=CCC(CC(=O)NO)CC4)ccc3OCC)nc12 (centres unmarked) [Example 1-42]	1000 to 10000	–	10 to 1000	> 10000	10 to 1000
